# Assay results from patent publication US7892767B2, “Phosphospecific chemokine receptor antibodies” (Washington University in St. Louis, priority 2005, dated 2011).
# Test system: Nf1+/+ astrocytes
# Experiment: Cell cycle analysis by flow cytometry, Nf1+/+ astrocytes
# Type: cell-based, mouse
# Details: CXCL12 0.1 μg/ml
# Method: Cell Cycle Analysis. Ethanol fixed cells were washed in PBS and resuspended in PI staining solution containing 0.1% Triton-X-100, 0.2 mg/ml RNase A, and 20 ug/ml Propidium Iodide in PBS. The cells were incubated for 15 minutes at 37° C., in the dark. Flow Cytometry was performed on a FACSCalibur system (Becton Dickinson, San Jose, Calif.) Data were analyzed using CellQuest software (Becton Dickinson, San Jose, Calif.). Aggregates and debris were excluded from the analysis.
# The basis for the in vitro growth effects of CXCL12 was further evaluated by cell cycle analysis of asynchronously growing cultures of Nf1+/+ and Nf1−/− astrocytes in the presence and absence of CXCL12. In agreement with measurements of cell number, 15% more Nf1−/− astrocytes were in the S+G2M fraction of the cell cycle compared to Nf1+/+ astrocytes (P<0.005, data not shown). This decrease in Nf1+/+ cell number in response to CXCL12 was the result of both a 6% decrease in proliferation (S+G2-M) and a 38+/−8% increase in apoptosis (sub-G0). The increase in Nf1−/− cell number was the result of a 27+/−12% decline in apoptosis alone (FIG. 9C).
substance,measurement,value
CXCL12: chemokine ligand of CXCR4 (Peprotech),decrease in proliferation (S+G2-M),6%
same,increase in apoptosis (sub-G0),38+/−8%
